From patent publication US5688936A, “Vesicle membrane transport proteins” (priority 1993, dated 1997)
Like-named read-outs stand apart in the source and are kept apart here.

How the values were obtained:
[1] = tested on: MPP^+ -resistant CHO cells; test: MTT cytotoxicity assay in MPP+-resistant transfected CHO cells; type: cell-based, Chinese hamster
Protocol: (§1) Differential susceptibility to the respiratory complex I inhibitors MPP^+ and rotenone was shown by measuring toxicity by measuring general cell dehydrogenase activity with reduction of a tetrazolium dye (MTT) in a spectrophotometric plate assay as described by Hansen et al., J. Immunol. Methods 119:203-210 (1989). Briefly, a stock solution of MTT (3,(4,5-dimethylthiazol-2-yl)2,5-diphenyltetrazolium bromide) was dissolved at a concentration of 5 mg/ml in sterile phosphate buffered saline at room temperature. To each well was added 25 μl of the stock solution. After two hours of incubation at 37° C., 100 μl of extraction buffer (20% w/v of SDS in a solution of 50% each dimethylformamide and demineralized water with the pH adjusted to 4.7 with acetic acid and HCl). After an overnight incubation at 37° C., the optical densities at 570 nm were measured using a multiscanner, employing the extraction buffer as the blank. This assay was carried out in triplicate on 96-well plates (NUNC, Denmark). MPP^+ and rotenone at the concentrations indicated in FIG. 6a and 6b, respectively, was added to wild-type and MPP^+ -resistant CHO cells at approximately 50% confluence, and toxicity was assayed after 2-3 days by measuring general cell dehydrogenase activity with the reduction of the tetrazolium dye MTT (3,(4,5-dimethylthiazol-2-yl)2,5-diphenyl-tetrazolium bromide). After addition of the dye at a final concentration of 1 mg/ml, the cells were incubated for two hours at 37° C. and the formazan product was solubilized in 10% sodium dodecyl sulfate (SDS). The plates were maintained at 37° C. for an additional twenty hours and the optical density was determined in an ELISA plate reader at a test wavelength of 570 nm, a reference wavelength of 630 nm and a calibration setting of 1.99. All determinations were performed in triplicate and expressed as the mean, with the error bars representing standard deviation (FIG. 6a and 6b).
To determine whether an alteration in the process of respiration was responsible for the resistance to MPP^+, the effects of other known respiratory inhibitors were examined. […] Thus, if the resistance were due to a change in the site of action, the transfected cells should also show resistance to rotenone. […] However, rotenone is considered to have its selected effect on respiration at relatively low doses, and an additional, less specific effect at higher doses.
Therefore, the toxicity of MPP^+ to transfected cells in the presence of 1 μM reserpine was examined.

[2] = tested on: CHO cells; test: Inhibition of protein synthesis in CHO cells by MPP+
[3] = tested on: transfected CHO cells; test: Survival/selection/growth of transfected CHO cells in MPP+; type: cell-based, Chinese hamster
Protocol: Using the above methods, the PC12 cDNA library constructed in the plasmid expression vector CDM8 was transfected into CHO cells. Using the selectable marker RSV- neo (Walker, Weizmann Institute, Israel), […] independent stable transformants were obtained after selection in the neomycin analogue G418 at 400 μg/ml effective dose. These cells were then selected at 40% confluence in 1 mM MPP^+. […] However, at four weeks, a colony of cells without refractile inclusions appeared and rapidly covered the plate. The apparently normal growth of these cells in the presence of 1 mM MPP^+ stands in marked contrast to all of the resistant clones obtained without transfection, which grew very slowly if at all. […] However, at 1 mM MPP^+, the resistant cells did show some toxicity, particularly when the assay was performed at higher cell density.
To identify the cDNA sequences responsible for conferring resistance to MPP^+, integrated plasmids were rescued from the primary CHO transformant obtained as described above in Example 1. […] The primary MPP^+ -resistant CHO transformant was amplified in culture and following cell lysis in 5M guanidinium isothiocyanate, the high molecular weight DNA prepared by repeated precipitation in isopropanol. After digestion with Not I, which cleaves the CDM8 vector once downstream of the cDNA insertion site as well as at rare eight-nucleotide recognition sites elsewhere in the genome, the DNA was religated and transformed into E. coli by electroporation as described by Stern-Bach et al., J. Biol. Chem. 265:3961-3966 (1990). Four pools of the derived plasmids containing approximately 50 colonies each were transfected into CHO cells and after two days were selected in 1 mM MPP^+. Four weeks later, one pool gave rise to several MPP^+ -resistant colonies, two pools gave rise to 1-2 colonies and the fourth pool and CDM8 vector gave rise to no healthy, resistant colonies. Restriction enzyme analysis of the plasmids in the pool conferring the highest frequency of resistance to MPP^+ indicated three independent clones of 1.0, 1.3 and 2.5 kb. […]

[4] = tested on: wild-type CHO cells; test: MTT cytotoxicity assay in wild-type CHO cells; type: cell-based, Chinese hamster; details: wild-type CHO, 2-3 days
Protocol: as §1

[5] = tested on: PC12 cells; details: cited from earlier work
[6] = tested on: chromaffin cells; details: [3H]-MPP+ accumulated; cited from earlier work
[7] = tested on: Untransfected CHO cells; test: Survival/selection of untransfected CHO cells in MPP+; type: cell-based, Chinese hamster; details: 500 μM
Protocol: To determine whether the transfer of DNA sequences from PC12 cells into CHO cells could be used to generate stable CHO transformants resistant to MPP^+, it was first necessary to determine the spontaneous rate of resistance under different culture conditions. […] Selection of one million CHO cells at intermediate density (25-50% confluence) in 500 μM MPP^+ gave rise to 5-10 small colonies after one month. However, these cells contained particulate inclusions characteristic of MPP^+ toxicity, and grew very slowly even when maintained at low density. At moderate density, the cells degenerated further and detached from the plate.

[8] = molecular target: T1, chromaffin granule amine transport protein (Rattus norvegicus, UniProt Q01818); test: Quantitative [3H]dopamine transport assay with mpp^res CHO cell homogenate; type: biochemical; details: for rank order for affinity of substrates: quantitative assay
T1 sequence (Q01818 1-521): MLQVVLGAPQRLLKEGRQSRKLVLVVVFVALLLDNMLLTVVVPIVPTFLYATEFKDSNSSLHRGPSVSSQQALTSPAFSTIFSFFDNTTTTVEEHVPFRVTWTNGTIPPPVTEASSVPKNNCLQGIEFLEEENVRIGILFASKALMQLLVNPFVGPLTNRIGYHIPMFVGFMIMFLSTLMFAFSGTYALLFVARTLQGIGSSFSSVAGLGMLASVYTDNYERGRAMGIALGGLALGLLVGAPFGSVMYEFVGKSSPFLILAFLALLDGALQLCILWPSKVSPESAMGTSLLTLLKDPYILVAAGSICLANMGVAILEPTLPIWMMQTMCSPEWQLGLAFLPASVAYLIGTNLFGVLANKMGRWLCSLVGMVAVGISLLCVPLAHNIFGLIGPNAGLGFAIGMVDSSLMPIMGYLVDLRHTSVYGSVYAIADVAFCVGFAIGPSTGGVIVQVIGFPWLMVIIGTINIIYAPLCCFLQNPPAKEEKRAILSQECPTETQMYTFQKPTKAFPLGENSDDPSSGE
Protocol: The quantity of label bound is measured after filtration of the assay mixture. Preferably, the label is a radioactive label. […] This can be done by standard graphic kinetic techniques such as the Lineweaver-Burke plot.
Incubation was performed at 29° C. for the time period indicated (from 2 minutes to 30 minutes). The assay was terminated by dilution in cold assay buffer followed by filtration through 0.2 μm Supor™ 200 membranes (Gelman, Ann Arbor, Mich.) and the bound radioactivity was measured. The cells used for the quantitative assay are selected in MPP^+ or screened with antibody to ensure that they express the transporter at high levels, as it is difficult to measure activity in this assay at low levels of transporter expression.
The quantitative transport test was performed as described above on wild-type CHO cells and mpp^res CHO cells.

[9] = tested on: PC12 cells; test: cells; details: Rattus norvegicus, PC-12, 1 h, read-out: [^3 H]-Dopamine Uptake (PC12)
Protocol: The effects of various pharmacologic agents were tested to determine whether the properties of the protein encoded by the mpp^res cDNA corresponded with those expected for the chromaffin granule amine transport protein. […] The cells were pre-incubated in Krebs-Ringer buffer containing 1 μM pargyline and the dose of the drug indicated for 15 minutes. […] Values were determined from three separate wells and the mean was expressed as percent of control uptake±standard deviation.

[10] = molecular target: T1, chromaffin granule amine transport protein; test: cell-based; type: cell-based; details: for Dopamine Fluorescence (mpp^res CHO): untreated control ++++, 12 hour dopamine loading; for inhibition of vesicular amine uptake/transport (fluorescence assay, in words): concentrations of Table 1
Protocol: Uptake and cellular compartmentalization of loaded dopamine were performed by growing cells on poly-lysine-coated glass coverslips. […] The cells were then washed three times in 0.1M sodium phosphate, pH 7.4, and incubated at 4° C. in 2% glyoxylic acid/0.5 mg% MgCl2, pH 4.9-5.0 for three minutes as described by de la Torre, J. Neurosci. Meth. 3:1-5 (1980). Briefly, excess solution is wiped off the bottom and edges of the slide using absorbent paper, taking care not to touch the section. The coverslips were then drained thoroughly, dried in air at 45° C. heated to 80° C. for five minutes, inverted over mineral oil on glass slides and examined under fluorescence using the appropriate filters as described by Knigge et al., Brain Res. 120:393-405 (1977). Briefly, the preparations were infiltrated with warm immersion oil and examined in a Leitz MPV2 microspectrofluorometer equipped with Schoffel excitation and emission grating monochromators, photomultipliers, and ratio computing circuitry. Cells were scanned with either monochromatic light (370 nm) or narrow band excitation (S405, BG3) light for the purpose of identifying fluorescence within cells. Ploem illumination was used in combination with a X 63 or X 100 oil immersion objective.
Dopamine-loaded fluorescence was carried out as described in Example 1. […] Glyoxylic-acid-induced fluorescence was used to determine the intracellular distribution as described above in Example 1. The procedures were the same as described in Example 1 however a pure cDNA clone encoding the vesicle membrane transport protein, selected in the presence of MPP^+, obtained as described herein, was used rather than the primary transformant. […]
The effects of various pharmacologic agents were tested to determine whether the properties of the protein encoded by the mpp^res cDNA corresponded with those expected for the chromaffin granule amine transport protein. […] The cells were pre-incubated in Krebs-Ringer buffer containing 1 μM pargyline and the dose of the drug indicated for 15 minutes. 25 nM [^3 H]-dopamine was then added in the same buffer and after incubation at 37° C. for one hour, the cells were washed in cold Krebs-Ringer buffer, lysed and counted in Ecolite (ICN) as described by Greene and Rein, Brain Res. 129:247-263 (1978). Values were determined from three separate wells and the mean was expressed as percent of control uptake±standard deviation. […] The dose required to inhibit maximal uptake by 50%, Ki, was estimated from the fluorescence data using a range of concentrations for each agent.

C[n+]1ccc(-c2ccccc2)cc1 [MPP^+, 1-methyl-4-phenylpyridinium]
MPP+ toxicity (MTT assay) ([1]; resistant cells, 1 mM, particularly at higher cell density): some toxicity
MPP+ toxicity (MTT assay) ([1]; resistant clone, 2-3 days): relative lack of toxicity
sensitivity of CHO cells to MPP+ relative to PC12 cells [2]: greater sensitivity to MPP^+ than PC12 cells
inhibition of protein synthesis ([2]; over 100 μM, 2-3 days, high density CHO cells): virtually complete inhibition of protein synthesis
toxicity in library-transfected CHO cells ([3]; 1 mM, 40% confluence): Virtually all of the cells developed toxicity within one week
growth of the resistant clone in MPP+ ([3]; vs untreated wild-type cells, particularly at higher densities): slightly more slowly
MPP+ toxicity (MTT assay) [4]: steep dose-response curve
PC12 cell death ([5]; 100 μM): death by two weeks
PC12 cell death ([5]; 1 mM): cell death by four days
toxicity to chromaffin cells [6]: relatively little toxicity
number of resistant colonies from one million CHO cells ([7]; 25-50% confluence, after one month): 5-10 small colonies
cell survival in MPP+ ([7]; high density (more than 75% confluence)): all of the cells died within 24 hours
cell survival in MPP+ ([7]; low density (less than 25% confluence)): the cells stopped growing, gradually acquiring refractile cytoplasmic inclusions, swelling and eventually detaching from the plate after several weeks
acquired resistance of untransfected CHO cells ([7]; selection for over two months): little resistance

N#CC(C#N)=NNc1cccc(Cl)c1 [carbonyl cyanide m-chlorophenylhydrazone]
dopamine incorporation by mpp^res cells ([8]; 5 μM): blocked

CCN(CC)CCCC(C)Nc1ccnc2cc(Cl)ccc12 (stereo not drawn) [chloroquine]
activity at 500 µM [9]: 17 ± 1%
Dopamine Fluorescence (mpp^res CHO) ([10]; agent 500 μM): 0
inhibition of vesicular amine uptake/transport (fluorescence assay, in words) [10]: inhibited vesicular amine uptake

CNCCCN1c2ccccc2CCc2ccccc21 [desipramine]
Ki ([10]; dose required to inhibit maximal uptake by 50%, estimated from fluorescence data, read-out: Ki (est)): 500 µM

NCCc1ccc(O)c(O)c1 [dopamine]
rank order for affinity of substrates [8]: serotonin>epinephrine>dopamine>norepinephrine

CNC[C@H](O)c1ccc(O)c(O)c1 [epinephrine]
rank order for affinity of substrates [8]: serotonin>epinephrine>dopamine>norepinephrine

NC[C@H](O)c1ccc(O)c(O)c1 [norepinephrine]
rank order for affinity of substrates [8]: serotonin>epinephrine>dopamine>norepinephrine

NCCc1c[nH]c2ccc(O)cc12 [serotonin]
rank order for affinity of substrates [8]: serotonin>epinephrine>dopamine>norepinephrine

COc1ccc(CCN(C)CCCC(C#N)(c2ccc(OC)c(OC)c2)C(C)C)cc1OC (stereo not drawn) [verapamil]
activity at 100 µM [9]: 21 ± 1%
Ki [10]: 50 µM
Dopamine Fluorescence (mpp^res CHO) ([10]; agent 100 μM): 0
inhibition of vesicular amine uptake/transport (fluorescence assay, in words) [10]: inhibited transport, but at high concentrations
